The nature of assay [1]: Luminescence-based cell-based high throughput dose response assay to identify activators of the DAF-12 from the parasite S. stercoralis (ssDAF-12). Type of assay: functional.
Assay [2] deals with T1, Oxysterols receptor LXR-beta (Homo sapiens, UniProt P55055).
T1 sequence (P55055 whole entry): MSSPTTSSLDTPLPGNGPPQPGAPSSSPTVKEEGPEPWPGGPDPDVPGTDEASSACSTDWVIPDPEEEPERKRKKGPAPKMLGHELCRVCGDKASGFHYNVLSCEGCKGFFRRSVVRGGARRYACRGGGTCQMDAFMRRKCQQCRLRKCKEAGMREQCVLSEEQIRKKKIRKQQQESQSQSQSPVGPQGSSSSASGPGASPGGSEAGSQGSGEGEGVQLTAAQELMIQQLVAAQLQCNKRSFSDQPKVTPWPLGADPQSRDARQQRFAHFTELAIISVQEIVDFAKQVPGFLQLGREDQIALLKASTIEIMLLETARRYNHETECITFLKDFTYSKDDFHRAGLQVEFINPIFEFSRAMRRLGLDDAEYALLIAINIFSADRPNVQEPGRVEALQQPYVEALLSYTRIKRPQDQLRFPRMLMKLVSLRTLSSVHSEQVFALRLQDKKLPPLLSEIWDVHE
Kind of assay: LXR agonists, Gal4 luciferase reporter, dose response, counter-screen for ssDAF-12 agonist project, cell-based, luminescence, HEK293, S. stercoralis campaign (AID 720737). The following applies: read-out: IC50 (the source's name). Type of assay: functional. On the technique in general: In a reporter assay the amount or activity of a reporter protein is the signal.

Assay [3] deals with T1, Oxysterols receptor LXR-beta. The format is functional, cell-based.
The nature of assay [4]: cytotoxicity in OVCAR8 ovarian cancer cells, dose response, PAX8 project, cell-based, plate reader, dry powder samples (AID 743197). The format is functional. The following applies: OVCAR-8.
Assay [5] in a line: NIH:OVCAR-3 ovarian cancer cell cytotoxicity, dose response, PAX8 inhibitor project, plate reader, dry powder samples (AID 743044). The format is functional, cell-based.
For a further assay, the target named is Paired box protein Pax-8 (Homo sapiens, UniProt Q06710). Kind of assay: inhibitors of PAX8-driven TPO luciferase reporter, dose response, RMG-I cells, cherry-pick (AID 687027).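 Further: luciferase reporter driven by Pax8 target thyroperoxidase promoter measured by SteadyGlo luminescence.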 Type of assay: functional, cell-based.
Paired box protein Pax-8, sequence (Q06710 whole entry): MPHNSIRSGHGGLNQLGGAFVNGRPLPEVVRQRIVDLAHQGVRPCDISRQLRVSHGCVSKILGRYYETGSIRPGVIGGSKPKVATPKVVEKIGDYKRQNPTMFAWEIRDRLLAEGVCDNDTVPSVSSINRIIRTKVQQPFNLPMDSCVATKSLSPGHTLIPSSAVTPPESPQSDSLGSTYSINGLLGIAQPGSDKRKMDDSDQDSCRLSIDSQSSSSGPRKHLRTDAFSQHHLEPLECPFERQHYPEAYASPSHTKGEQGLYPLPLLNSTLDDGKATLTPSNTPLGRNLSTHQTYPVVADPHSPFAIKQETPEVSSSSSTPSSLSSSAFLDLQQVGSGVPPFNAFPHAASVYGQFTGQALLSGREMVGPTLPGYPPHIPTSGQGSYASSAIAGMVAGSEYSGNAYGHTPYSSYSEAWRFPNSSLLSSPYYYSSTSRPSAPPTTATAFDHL
Assay [6] is described as follows: A2780 ovarian cancer cell cytotoxicity, dose response, cytotoxicity control, plate reader, dry powder samples (AID 743046). Type of assay: functional, cell-based.
A short description of assay [7]: IGROV1 ovarian cancer cell cytotoxicity, dose response, PAX8 inhibitor project, plate reader, dry powder samples (AID 743043). The format is functional, cell-based. The note with it: IGROV-1.
Assay [8] is described as follows: IOSE-T80 ovarian epithelial cell cytotoxicity, dose response, cytotoxicity control for PAX8 inhibitor project, plate reader, dry powder samples (AID 743045). The format is functional, cell-based.
Assay [9] can be described thus: P. falciparum Dd2 growth inhibitors, dose response, SYBR Green, cherry-picked samples (AID 1159567). The format is functional, cell-based.
A short description of assay [10]: P. falciparum 3D7-ScDHODH growth inhibitors, dose response, SYBR Green, dry powder samples (AID 1159570).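 Further: parasite growth measured after 72 hours of compound exposure.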 The format is functional, cell-based.
A short description of assay [11]: PAX5 activity inhibitors, dose response, selectivity assay for PAX8 inhibitor project, cell-based, plate reader, dry powder samples (AID 743047).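 Further: HEK293 cells carrying a Pax5 driven CD19 promoter luciferase reporter; potency of inhibitors that lower reporter luminescence.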 The format is functional.
A short description of assay [12]: HepG2 cell cytotoxicity, dose response, cytotoxicity control, plate reader, dry powder samples (AID 1159569).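 Further: inhibitor potency with signal falling toward the positive control level.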 The format is functional, cell-based.
Assay [13] in a line: P. falciparum Dd2 growth inhibitors, dose response, SYBR Green, dry powder samples (AID 1159566).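 Further: potency for growth inhibition with lower SYBR green DNA signal.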 The format is functional, cell-based.
The nature of assay [14]: cytotoxicity in COV362 ovarian cancer cells, dose response, cytotoxicity control for PAX8 inhibitor project, cell-based, plate reader, dry powder, SA12 (AID 743144). The format is functional.
Assay [15] can be described thus: PAX2 cell-based inhibition, dose response, selectivity assay for PAX8 inhibitor project, plate reader, dry powder samples (AID 743048).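 Further: HEK293 cells carrying a WT1 promoter luciferase reporter driven by expressed Pax2; potency is for inhibition of Pax2 driven reporter signal.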 The format is functional.
A short description of assay [16]: P. falciparum ATP4 D1247Y mutant growth inhibitors, dose response, NITD609-resistant line, SYBR Green, dry powder (AID 1159571).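 Further: parasites synchronized at ring stage by sorbitol before testing.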 The format is functional, cell-based.
Assay [17] can be described thus: cytotoxicity dependent on PAX8, dose response, cell-based, plate reader, dry powder (AID 743049). Type of assay: functional.
The nature of assay [18]: cytotoxicity toward HT-29 cells – cell-based, CellTiter-Glo luminescence, IC50, dose response (AID 1117330). The format is functional.
A short description of assay [19]: cytotoxicity toward HCT116 cells – cell-based, CellTiter-Glo luminescence, IC50, dose response (AID 1117332). The format is functional. The following applies: HCT-116.
Assay [20] in a line: HCT116 cell viability decrease, GSK3B pretreatment – CellTiter-Glo, IC50, dose response (AID 1117339). The format is functional. The note with it: HCT-116. A general note: Cellular ATP, detected with luciferase, serves as a proxy for viable cell number.
A short description of assay [21]: SNU-C1 cell viability reduction, dose response, CellTiter-Glo luminescence (AID 1117323). The format is functional, cell-based.
Assay [22] in a line: Concentration-dependent survival of SW480 colon cancer line, luminescence detection with CellTiter-Glo, half-maximal inhibitory concentration (AID 1117338). The format is functional.
The nature of assay [23]: cytotoxicity toward Colo320 cells – cell-based, CellTiter-Glo luminescence, IC50, dose response (AID 1117334). Type of assay: functional. The note with it: COLO 320.
Assay [24] is described as follows: CellTiter-Glo luminescent dose response of DLD-1 viability loss (AID 1117352). Type of assay: functional.
A short description of assay [25]: RKO cell viability reduction, dose response, CellTiter-Glo luminescence (AID 1117322). Type of assay: functional.
Assay [26] in a line: cytotoxicity in COV434 cells, dose response, cytotoxicity control for PAX8 inhibitor project, cell-based, plate reader, dry powder, SA7 (AID 743145). The format is functional.
Assay [27] in a line: cytotoxicity in OV-90 ovarian cancer cells, dose response, PAX8 inhibitor project, cell-based, plate reader, dry powder, SA8 (AID 743149). Type of assay: functional.
A short description of assay [28]: Late stage assay provider results from the probe development effort to identify selective inhibitors of heat shock protein 90 (HSP90): Absorbance-based cell proliferation assay in MCF7 cells. Type of assay: functional.
Assay [29] is described as follows: Late stage assay provider results from the probe development effort to identify selective inhibitors of heat shock protein 90 (HSP90): Absorbance-based cell proliferation assay in SKBR3 cells. Type of assay: functional. The note with it: SK-BR-3.
For assay [30], the target named is T2, Carboxy-terminal domain RNA polymerase II polypeptide A small phosphatase 1 (Homo sapiens, UniProt Q9GZU7).
T2 sequence (Q9GZU7 whole entry): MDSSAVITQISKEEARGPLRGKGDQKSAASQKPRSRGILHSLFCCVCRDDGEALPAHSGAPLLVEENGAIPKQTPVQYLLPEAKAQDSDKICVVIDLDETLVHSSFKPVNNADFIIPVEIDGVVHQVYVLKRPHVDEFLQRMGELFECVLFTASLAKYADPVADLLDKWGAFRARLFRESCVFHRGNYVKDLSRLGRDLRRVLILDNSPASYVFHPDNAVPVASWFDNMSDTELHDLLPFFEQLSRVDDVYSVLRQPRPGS
The assay is described as follows: inhibitors of CTDSP1, concentration-response testing, biochemical assay, absorbance-based, actives from ultra-high-throughput screening (AID 540297). The format is functional.

For assay [31], the target named is Bifunctional protein GlmU (Mycobacterium tuberculosis, UniProt P9WMN3). Kind of assay: Inhibitors of Mycobacterial Glucosamine-1-phosphate acetyl transferase (GlmU). Secondary screen. Set-up: species or system Mycobacterium tuberculosis H37Rv.
Bifunctional protein GlmU, sequence (P9WMN3 whole entry): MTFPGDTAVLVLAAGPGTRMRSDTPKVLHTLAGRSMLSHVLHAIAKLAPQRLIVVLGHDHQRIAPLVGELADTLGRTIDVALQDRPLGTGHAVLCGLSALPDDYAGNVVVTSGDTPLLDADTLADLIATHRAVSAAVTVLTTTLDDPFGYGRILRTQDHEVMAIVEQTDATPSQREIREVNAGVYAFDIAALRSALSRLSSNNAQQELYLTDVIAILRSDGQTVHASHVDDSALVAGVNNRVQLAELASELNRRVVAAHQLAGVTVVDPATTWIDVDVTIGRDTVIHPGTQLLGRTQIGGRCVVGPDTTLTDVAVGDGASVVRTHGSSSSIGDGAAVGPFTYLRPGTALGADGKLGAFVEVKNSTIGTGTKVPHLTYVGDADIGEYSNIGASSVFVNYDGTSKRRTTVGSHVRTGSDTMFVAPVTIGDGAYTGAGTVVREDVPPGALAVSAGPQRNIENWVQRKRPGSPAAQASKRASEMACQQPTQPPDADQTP
Another assay concerns the target T3, Caspase-6 (Homo sapiens, UniProt P55212).
T3 sequence (P55212 whole entry): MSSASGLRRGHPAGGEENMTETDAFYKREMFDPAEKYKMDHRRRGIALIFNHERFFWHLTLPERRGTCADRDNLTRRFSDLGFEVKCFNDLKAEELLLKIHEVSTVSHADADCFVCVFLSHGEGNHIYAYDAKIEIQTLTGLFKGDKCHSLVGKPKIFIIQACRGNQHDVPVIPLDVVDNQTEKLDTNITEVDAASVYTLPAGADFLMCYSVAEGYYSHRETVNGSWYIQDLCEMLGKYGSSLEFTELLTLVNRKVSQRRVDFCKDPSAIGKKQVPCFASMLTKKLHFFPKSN
Kind of assay: human caspase-6 inhibitors, dose response, biochemical, VEID-R110 fluorescence, cherry-pick (AID 720632).

Activity calls are given as the source filed them.

A word on the IC50: it is the midpoint of a concentration-inhibition curve. Regarding `COc1ccc(C(=N)NOC(=O)c2cccs2)cc1`, the IC50 in assay [1] is > 67.6 µM (inactive). Moreover, the EC50 in assay [2] is > 67.6 µM (inactive).
As for `CC(C)(C)NC(=O)NC(=O)COc1ccc(Br)cc1Br`, the EC50 (in assay [3]; in the assay “cells”) was > 67.5 µM (inactive) in each case.
The term AC50 denotes the concentration giving half of the maximal activity seen. In the case of `COc1ccc(-c2ccc3c(c2)[C@H]2[C@H](CCN2S(=O)(=O)c2ccc(OC)cc2)[C@H](CO)N3C)cc1`, the AC50 in [4] is 7.31 µM (active); in [5], 3.15 µM (active); at Paired box protein Pax-8, 7.21 µM (active); in assay [6], 1.52 µM (active); in assay [7] it was 5.8 µM (active); in assay [8] it was 6.56 µM (active).
Take `COc1cccc(C#Cc2ccc([C@@H]3[C@@H](C#N)N(C(=O)C4CCCCC4)[C@H]3CO)cc2)c1`: the AC50 in assay [4] was > 70 µM (inactive); on Paired box protein Pax-8, 8.61 µM (active); in [9] it was 0.865 µM (active); in assay [10], 1.11 µM (active); in assay [11] it was 5.72 µM (active); in [12], 26.5 µM (active). The AC50 in assay [13] was 0.422 µM (active); in [14], > 70 µM (inactive); in [15], 46.5 µM (active); in assay [16], 1.13 µM (active); in [17] it was 15.9 µM (active).
As to `CC(=O)N(CC(O)CN(C(C)=O)c1c(I)c(C(=O)NCC(O)CO)c(I)c(C(=O)NCC(O)CO)c1I)c1c(I)c(C(=O)NCC(O)CO)c(I)c(C(=O)NCC(O)CO)c1I` (configuration not stated) [IODIXANOL], the IC50 in [18], in [19], in assay [20], in assay [21], in [22] and in assay [23] was > 20 µM (inactive) each time. The IC50 in assay [24] and in assay [25] was > 20 µM (inactive) each time.
On to `CC(C)c1cc(C(=O)OCC(=O)N2CCN(C(=O)c3ccco3)CC2)c(O)c(C(C)C)c1`, for which the AC50 in assay [5] was 49.9 µM (active); on Paired box protein Pax-8, 1.58 µM (active); in [11], 45.8 µM (active); in assay [26], 13.7 µM (active); in assay [17], 10.8 µM (active); in [27], 81.3 µM (active).
As to `O=C(NCc1cccnc1)c1coc(=O)c(Br)c1`, the IC50 in assay [28] is 3.5 µM (active); in assay [29], 12.8 µM (inactive).
On to `CCCCCCCCOc1ccc(NC(=O)c2coc(=O)c(Br)c2)cc1`, for which the values for the IC50 in assay [28] and in assay [29] were 12.9 µM (inactive) and 13.5 µM (inactive), respectively.
As to `O=C(O)c1ccc(N2C(=O)c3cccc4c(C(=O)O)ccc(c34)C2=O)cc1`, the results for the IC50 in [30] and in assay [31] were 3.53 µM (active) and 98.9 µM (active), respectively. The concentration at half-maximal activity (AC50) at Caspase-6 is 7.17 µM (active).

These data come from ChEMBL document CHEMBL1201862, “PubChem BioAssay data set” (2004).
